Results as given in patent US9187472B2 (AbbVie Inc., priority 2012, dated 2015).

Key:
[1] = biological target: NAMPT (human, recombinant, C-terminally His-tagged) (Homo sapiens, UniProt P43490); assay: Time-Resolved Fluorescence Resonance Energy Transfer (TR-FRET) Binding Assay of NAMPT; conditions: without substrates; 6.8 nM NAMPT, 200 nM probe, 3 hours equilibration
In short: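 11-pt half-log compound series; final 6.8 nM NAMPT, 200 nM OG488 nicotinamide-competitive probe, 1 nM Tb-anti-His Ab, 2% DMSO, HEPES pH 7.5/NaCl/MgCl2/DTT/glycerol buffer. 3 h RT equilibration. Em520/Em495 ratio (Ex 337 nm), control-normalized, 4-parameter fit → IC50.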

NAMPT = NAMPT (Homo sapiens, UniProt P43490); assay: TR-FRET Binding Assay of NAMPT with PRPP; conditions: with 200 μM PRPP and 2.5 mM ATP; 2 nM NAMPT, 2 nM probe, 16 hours equilibration
In short: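 TR-FRET probe-displacement binding with 2 nM NAMPT, 2 nM probe and 1 nM Tb-anti-His antibody, run in the presence of 200 μM PRPP and 2.5 mM ATP at 2% DMSO. Equilibrated 16 hours before reading so test compounds could undergo enzymatic modification.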

PC3 cells = assay: NAMPT Cell Proliferation Assay; format: cell-based; conditions: Homo sapiens, PC-3, 120 h, 5 days incubation, cell viability by Cell Titer Glo
In short: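 Seed PC3 at 500 cells/well (RPMI, 10% HI-FBS), attach overnight; add compound, 10-fold series 10 μM → 1×10^−5 μM; incubate 5 d, 37° C/5% CO2; luminescent viability readout; fit % inhibition sigmoidally for IC50.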

NAMPT, sequence (P43490 whole entry): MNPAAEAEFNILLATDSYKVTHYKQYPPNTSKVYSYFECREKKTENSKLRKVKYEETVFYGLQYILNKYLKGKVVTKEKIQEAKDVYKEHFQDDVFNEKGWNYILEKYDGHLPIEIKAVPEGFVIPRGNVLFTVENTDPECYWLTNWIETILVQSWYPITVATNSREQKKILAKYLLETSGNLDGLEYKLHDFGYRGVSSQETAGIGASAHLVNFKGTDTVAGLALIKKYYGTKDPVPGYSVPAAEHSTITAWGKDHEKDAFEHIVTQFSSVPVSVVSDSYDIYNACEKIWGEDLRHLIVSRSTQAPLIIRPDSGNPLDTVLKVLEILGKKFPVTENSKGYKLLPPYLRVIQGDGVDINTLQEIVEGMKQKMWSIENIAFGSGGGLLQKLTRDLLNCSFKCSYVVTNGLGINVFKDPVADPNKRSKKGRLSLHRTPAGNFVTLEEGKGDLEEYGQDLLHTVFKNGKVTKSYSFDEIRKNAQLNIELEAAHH
NAMPT (human, recombinant, C-terminally His-tagged), sequence (P43490 whole entry): as above

O=C(NCc1ccn2ccnc2c1)c1ccc(C2CCN(C(=O)CC3CCOCC3)C2)cc1 (stereo not drawn) [Example 378, N-(imidazo[1,2-a]pyridin-7-ylmethyl)-4-[1-(tetrahydro-2H-pyran-4-ylacetyl)pyrrolidin-3-yl]benzamide]
IC50 [1]: 897 nM | IC50 (NAMPT): 0.169 nM | IC50 (PC3 cells): > 10000 nM

CC(=O)N1CCC(c2ccc(NC(=O)NCc3ccn4ccnc4c3)cc2)C1 (stereo not drawn) [Example 379, 1-[4-(1-acetylpyrrolidin-3-yl)phenyl]-3-(imidazo[1,2-a]pyridin-7-ylmethyl)urea]
IC50 [1]: 279 nM | IC50 (NAMPT): 0.29 nM | IC50 (PC3 cells): 370 nM

CC(C)C(=O)N1CCC(c2ccc(NC(=O)NCc3ccn4ccnc4c3)cc2)C1 (stereo not drawn) [Example 380, 1-(imidazo[1,2-a]pyridin-7-ylmethyl)-3-{4-[1-(2-methylpropanoyl)pyrrolidin-3-yl]phenyl}urea]
IC50 [1]: 179 nM | IC50 (NAMPT): 0.251 nM | IC50 (PC3 cells): 40 nM

CC[C@H](C)C(=O)N1CCC(c2ccc(NC(=O)NCc3ccn4ccnc4c3)cc2)C1 (stereo partly drawn) [Example 381]
IC50 [1]: 84.1 nM | IC50 (NAMPT): 0.259 nM | IC50 (PC3 cells): 17.3 nM

O=C(NCc1ccn2ccnc2c1)Nc1ccc(C2CCN(C(=O)CC3CC3)C2)cc1 (stereo not drawn) [Example 382]
IC50 [1]: 119 nM | IC50 (NAMPT): 0.204 nM | IC50 (PC3 cells): 83.8 nM

O=C(NCc1ccn2ccnc2c1)Nc1ccc(C2CCN(C(=O)c3ccccc3)C2)cc1 (stereo not drawn) [Example 383, 1-[4-(1-benzoylpyrrolidin-3-yl)phenyl]-3-(imidazo[1,2-a]pyridin-7-ylmethyl)urea]
IC50 [1]: 49.5 nM | IC50 (NAMPT): 0.225 nM | IC50 (PC3 cells): 13.3 nM

CC(C)OCC(=O)N1CCC(c2ccc(NC(=O)NCc3ccn4ccnc4c3)cc2)C1 (stereo not drawn) [Example 384, 1-(imidazo[1,2-a]pyridin-7-ylmethyl)-3-(4-{1-[(propan-2-yloxy)acetyl]pyrrolidin-3-yl}phenyl)urea]
IC50 [1]: 406 nM | IC50 (NAMPT): 0.375 nM | IC50 (PC3 cells): 51.7 nM

CC(C)(O)C(=O)N1CCC(c2ccc(NC(=O)NCc3ccn4ccnc4c3)cc2)C1 (stereo not drawn) [Example 385, 1-{4-[1-(2-hydroxy-2-methylpropanoyl)pyrrolidin-3-yl]phenyl}-3-(imidazo[1,2-a]pyridin-7-ylmethyl)urea]
IC50 [1]: 491 nM | IC50 (NAMPT): 0.539 nM | IC50 (PC3 cells): 110 nM

O=C(NCc1ccn2ccnc2c1)Nc1ccc(C2CCN(C(=O)[C@H]3CCCO3)C2)cc1 (stereo partly drawn) [Example 386, 1-(imidazo[1,2-a]pyridin-7-ylmethyl)-3-(4-{1-[(2R)-tetrahydrofuran-2-ylcarbonyl]pyrrolidin-3-yl}phenyl)urea]
IC50 [1]: 283 nM | IC50 (NAMPT): 0.254 nM | IC50 (PC3 cells): 42.4 nM

O=C(NCc1ccn2ccnc2c1)Nc1ccc(C2CCN(C(=O)[C@@H]3CCCO3)C2)cc1 (stereo partly drawn) [Example 387, 1-(imidazo[1,2-a]pyridin-7-ylmethyl)-3-(4-{1-[(2S)-tetrahydrofuran-2-ylcarbonyl]pyrrolidin-3-yl}phenyl)urea]
IC50 [1]: 419 nM | IC50 (NAMPT): 0.467 nM | IC50 (PC3 cells): 58.1 nM

O=C(NCc1ccn2ccnc2c1)Nc1ccc(C2CCN(C(=O)[C@H]3CCOC3)C2)cc1 (stereo partly drawn) [Example 388, 1-(imidazo[1,2-a]pyridin-7-ylmethyl)-3-(4-{1-[(3S)-tetrahydrofuran-3-ylcarbonyl]pyrrolidin-3-yl}phenyl)urea]
IC50 [1]: 388 nM | IC50 (NAMPT): 0.506 nM | IC50 (PC3 cells): 122 nM

O=C(NCc1ccn2ccnc2c1)Nc1ccc(C2CCN(C(=O)C3CCOCC3)C2)cc1 (stereo not drawn) [Example 389, 1-(imidazo[1,2-a]pyridin-7-ylmethyl)-3-{4-[1-(tetrahydro-2H-pyran-4-ylcarbonyl)pyrrolidin-3-yl]phenyl}urea]
IC50 [1]: 584 nM | IC50 (NAMPT): 0.617 nM | IC50 (PC3 cells): 78.3 nM

O=C(NCc1ccn2ccnc2c1)Nc1ccc(C2CCN(C(=O)C3COCCO3)C2)cc1 (stereo not drawn) [Example 390]
IC50 [1]: 133 nM | IC50 (NAMPT): 0.445 nM | IC50 (PC3 cells): 80.3 nM

O=C(NCc1ccn2ccnc2c1)Nc1ccc(C2CCN(C(=O)CC3CCOCC3)C2)cc1 (stereo not drawn) [Example 391, 1-(imidazo[1,2-a]pyridin-7-ylmethyl)-3-{4-[1-(tetrahydro-2H-pyran-4-ylacetyl)pyrrolidin-3-yl]phenyl}urea]
IC50 [1]: 171 nM | IC50 (NAMPT): 0.227 nM | IC50 (PC3 cells): 78.4 nM

O=C(NCc1ccn2ccnc2c1)Nc1ccc(C2CCN(C(=O)CN3CCOCC3)C2)cc1 (stereo not drawn) [Example 392, 1-(imidazo[1,2-a]pyridin-7-ylmethyl)-3-{4-[1-(morpholin-4-ylacetyl)pyrrolidin-3-yl]phenyl}urea]
IC50 [1]: 814 nM | IC50 (NAMPT): 0.465 nM | IC50 (PC3 cells): 666 nM

CC(C)CCNC(=O)c1ccc(C(=O)NCc2ccn3ccnc3c2)cc1 [Example 393, N-(imidazo[1,2-a]pyridin-7-ylmethyl)-N′-(3-methylbutyl)benzene-1,4-dicarboxamide]
IC50 [1]: > 10000 nM | IC50 (NAMPT): 4.37 nM | IC50 (PC3 cells): > 10000 nM

O=C(NCc1ccn2ccnc2c1)c1ccc(C(=O)NC[C@@H]2CCOC2)cc1 [Example 394, N-(imidazo[1,2-a]pyridin-7-ylmethyl)-N′-[(3S)-tetrahydrofuran-3-ylmethyl]benzene-1,4-dicarboxamide]
IC50 [1]: > 10000 nM | IC50 (NAMPT): 3.08 nM | IC50 (PC3 cells): > 10000 nM

O=C(NCc1ccn2ccnc2c1)c1ccc(-c2cnn(C[C@H]3CCCO3)c2)s1 [Example 395, N-(imidazo[1,2-a]pyridin-7-ylmethyl)-5-{1-[(2R)-tetrahydrofuran-2-ylmethyl]-1H-pyrazol-4-yl}thiophene-2-carboxamide]
IC50 [1]: 12.5 nM | IC50 (NAMPT): 0.193 nM | IC50 (PC3 cells): 6.34 nM

O=C(Nc1ccc(C(=O)NCC2CCCCO2)cc1)Nc1ccc2ncc(Cl)n2c1 (stereo not drawn) [Example 396, 4-{[(3-chloroimidazo[1,2-a]pyridin-6-yl)carbamoyl]amino}-N-(tetrahydro-2H-pyran-2-ylmethyl)benzamide]
IC50 [1]: 22.6 nM | IC50 (NAMPT): 0.36 nM | IC50 (PC3 cells): 32.4 nM

O=C(NCc1ccn2ccnc2c1)c1ccc(-c2cnn(C[C@@H]3CCCO3)c2)s1 [Example 397, N-(imidazo[1,2-a]pyridin-7-ylmethyl)-5-{1-[(2S)-tetrahydrofuran-2-ylmethyl]-1H-pyrazol-4-yl}thiophene-2-carboxamide]
IC50 [1]: 17.7 nM | IC50 (NAMPT): 0.169 nM | IC50 (PC3 cells): 7.12 nM

O=C(CC1CCOC1)Nc1ccc(C(=O)NCc2ccc3ncc(Cl)n3c2)cc1 (stereo not drawn) [Example 398, N-[(3-chloroimidazo[1,2-a]pyridin-6-yl)methyl]-4-[(tetrahydrofuran-3-ylacetyl)amino]benzamide]
IC50 [1]: 210 nM | IC50 (NAMPT): 0.792 nM | IC50 (PC3 cells): 73.6 nM

O=C(NCc1ccn2ccnc2c1)c1ccc(C2(O)CCOCC2)s1 [Example 399, 5-(4-hydroxytetrahydro-2H-pyran-4-yl)-N-(imidazo[1,2-a]pyridin-7-ylmethyl)thiophene-2-carboxamide]
IC50 [1]: 9500 nM | IC50 (NAMPT): 1.54 nM | IC50 (PC3 cells): 7680 nM

CC(C)C(=O)N1CC(O)(c2ccc(C(=O)NCc3ccn4ccnc4c3)s2)C1 [Example 400, 5-[3-hydroxy-1-(2-methylpropanoyl)azetidin-3-yl]-N-(imidazo[1,2-a]pyridin-7-ylmethyl)thiophene-2-carboxamide]
IC50 [1]: 81.2 nM | IC50 (NAMPT): 0.298 nM | IC50 (PC3 cells): 712 nM

O=C(NCc1ccn2ccnc2c1)c1ccc(C2(O)CN(C(=O)c3ccccc3)C2)s1 [Example 401, 5-(1-benzoyl-3-hydroxyazetidin-3-yl)-N-(imidazo[1,2-a]pyridin-7-ylmethyl)thiophene-2-carboxamide]
IC50 [1]: 12.6 nM | IC50 (NAMPT): 0.292 nM | IC50 (PC3 cells): 55.9 nM

CC(C)(C)OC(=O)N1CC(c2ccc(C(=O)NCc3ccn4ccnc4c3)cc2)C1 [Example 402, tert-butyl 3-{4-[(imidazo[1,2-a]pyridin-7-ylmethyl)carbamoyl]phenyl}azetidine-1-carboxylate]
IC50 [1]: 54.8 nM | IC50 (NAMPT): 0.327 nM | IC50 (PC3 cells): 6.71 nM

CC(C)(C)OC(=O)N1CCC(O)(c2ccc(C(=O)NCc3ccn4ccnc4c3)s2)CC1 [Example 403, tert-butyl 4-hydroxy-4-{5-[(imidazo[1,2-a]pyridin-7-ylmethyl)carbamoyl]thiophen-2-yl}piperidine-1-carboxylate]
IC50 [1]: 1550 nM | IC50 (NAMPT): 0.847 nM | IC50 (PC3 cells): 54.5 nM

O=C(NCc1ccn2ccnc2c1)Nc1ncc(C(=O)N2CCCCC2)s1 [Example 404, 1-(imidazo[1,2-a]pyridin-7-ylmethyl)-3-[5-(piperidin-1-ylcarbonyl)-1,3-thiazol-2-yl]urea]
IC50 [1]: 2550 nM | IC50 (NAMPT): 0.88 nM | IC50 (PC3 cells): 9410 nM

CC[C@H](C)C(=O)N1CC(O)(c2ccc(C(=O)NCc3ccn4ccnc4c3)s2)C1 [Example 405, 5-{3-hydroxy-1-[(2S)-2-methylbutanoyl]azetidin-3-yl}-N-(imidazo[1,2-a]pyridin-7-ylmethyl)thiophene-2-carboxamide]
IC50 [1]: 78.4 nM | IC50 (NAMPT): 0.214 nM | IC50 (PC3 cells): 22.1 nM

O=C(NCc1ccn2ccnc2c1)c1ccc(C2(O)CN(C(=O)CC3CCOCC3)C2)s1 [Example 406, 5-[3-hydroxy-1-(tetrahydro-2H-pyran-4-ylacetyl)azetidin-3-yl]-N-(imidazo[1,2-a]pyridin-7-ylmethyl)thiophene-2-carboxamide]
IC50 [1]: 1140 nM | IC50 (NAMPT): 0.505 nM | IC50 (PC3 cells): 347 nM
